In patent publication US12030896B2, “PIKfyve inhibitors” (Mayo Foundation for Medical Education and Research, priority 2018, dated 2024):

Key:
Assay type in all cases: cell-based
[1] = test system: Murine lymphoma cells (E2409, EC+F); assay: Killing of murine lymphoma cells, 48 hour assay
Experimental: All experiments in FIG. 6 were performed using RPMI media (Life Technologies) was used as the base formulation and culture medium also contained 1 mM Sodium Pyruvate, 100 mM HEPES, 2 mM additional L-Glutamine, 55 uM 2-mercaptoethanol, and 1×MEM NEAA Solution (all from Life Technologies). Trypsin was not necessary for these non-adherent cells. Presto Blue reagent (Life Technologies) was used as an endpoint assay using the same procedure described in previously for Alamar Blue, with a 30 minute incubation time.

[2] = test system: Human Glioblastoma multiforme cells (T98G, G22VF, U251) and human medulloblastoma cells (p16, p9); assay: Cell viability by cell titer-Glo luminescence (ATP level) assay; settings: 72 hours, various concentrations
Experimental: Human Glioblastoma multiforme cells (T98G, G22VF, U251) and human medulloblastoma cells (p16, p9) were incubated with various concentrations of Example 1 for 72 hours, and then cell viability assessed by cell titer-Glo luminescence (ATP level) assay.
Methods: Example 1 was dissolved into DMSO (ATCC) at a concentration of 40 mM, this stock was further diluted to 2× the highest final working concentration into complete medium consisting of DMEM (Life Technologies), penicillin/streptomycin antibiotic solution (Life Technologies), and 10% FBS (Seradigm). This stock was dispensed into the final column of a white-walled, flat-bottomed 96-well plate (Corning). Serial dilutions (1.5× or 2× depending on the assay) were then made using complete medium down to the lowest assayed concentration of Example 1. The final column of the 96-well plate was saved as a vehicle-only control and included DMSO diluted 1:250 in complete medium. […]
These plates were placed in a 5% CO2, 37° C. incubator. After 72 hrs of incubation, relative ATP content was measured as an indirect indication of the number of viable cells per well. […] This reaction was protected from light and incubated for 10 min at room temperature, then total luminescence was read using a Synergy H1 microplate reader (Biotek).
Raw luminescence numbers or relative ATP concentration (reported as a percentage of the vehicle-treated control) are show. […]

murine lymphoma cells = assay: Vacuolization seen by light microscopy
Experimental: Vacuolization due to treatment with Example 1 compound was extremely rapid, becoming visible by light microscopy within 30 minutes or less.

SMILES: Cc1ccc(Nc2nc(N/N=C/c3c[nH]c4ccccc34)nc(N3CCOCC3)n2)cc1 [Example 1, (E)-4-(2-((1H-indol-3-yl)methylene)hydrazinyl)-6-morpholino-N-(p-tolyl)-1,3,5-triazin-2-amine]
- cell killing [1]: killed by relatively low concentrations
- cell viability (ATP level) [2]: killed effectively
- time until vacuolization visible by light microscopy (murine lymphoma cells): ≤ 30 min
